Patent US20250009716A1, “NOVEL INHIBITORS OF CLAUDIN-1 FOR THERAPEUTIC INTERVENTIONS” (BOARD OF REGENTS OF THE UNIVERSITY OF NEBRASKA, priority 2021, published 2025)
“Also recorded” adds a separate entry of the source.

How the values were obtained:
[1] = Cell survival assay of three inhibitors (FIG. 2B); type: cell-based
Protocol: (§1) (A) In-silico 3D-structure of claudin-1, cavities that can be targeted by small molecules were defined using Molegro Virtual Docker. (B) Cell survival assay showing effects of three different inhibitors (I1, I2 and 16). […] (C) Effect of 16 treatment (72 hours) upon resistance to anoikis in claudin-1 overexpressing SW480 cells and claudin-1 deficient HCT116 cells. (D) Effect of 16 treatment on cell invasion in SW480claudin-1 cells. (E) Effect of inhibitor 16 on xenograft tumors. Tumors were induced for two weeks after which 16 was injected i.p (10 mg/kg). Effect on tumor growth was monitored.

SW480claudin-1 cells [2] = test: Cell invasion assay; type: cell-based
Text: (§2) The crystal structure of claudin-1 is unknown. Therefore, an in-silico protein folding program, YASARA, was used to identify an effective claudin-1 inhibitor. The resultant 3D-structure was then modeled using Molegro Virtual Docker (MVD) software program. These in-silico analyses identified putative cavities in the claudin-1 protein that can be targeted by small molecule inhibitors. Next, a 100K library of small molecules was screened in silico using the MVD. The top 10 inhibitors that bound to the Site #3 (targeting near c-terminal domain; the most accessible pocket; FIG. 2A) with the best binding energies were selected as hits and used for further testing. Screening of these inhibitors named Inihibitor-1 (1-1) to Inhibitor-10 (I-10) was done using SW480claudin-1, SW620 and control cells. Claudin-1 deficient HCT116 cells (WT-APC) or SW620shRNAcld-1 were used as negative controls. Resistance to anoikis and cell invasion was used as biological end-points in testing these inhibitors. […] 16 has the following structure:
To this end, a library of molecules was synthesized in order to develop an initial SAR evaluation. The first compounds tested eliminated the acylated (thio) urea as well as the napthyl group and evaluated just the urea/phenyl compounds (Compounds 1-6). […] The result of metabolic stability was expressed as the percentage of drug remaining at each time. […]

[3] = molecular target: T1, claudin-1/Src complex in SW480claudin-1 cells (Homo sapiens, UniProt O95832); test: Claudin-1/Src association (proximity ligation assay, Co-IP); type: cell-based; conditions: PLA, Co-IP or immuno-precipitation
T1 construct: claudin-1 was expressed in a non-metastatic CRC cell line, SW480 cells; expressed in transfected cells; host or cells: SW480 colorectal cancer cells expressing claudin-1 (SW480claudin-1)
T1 sequence (O95832 1-211): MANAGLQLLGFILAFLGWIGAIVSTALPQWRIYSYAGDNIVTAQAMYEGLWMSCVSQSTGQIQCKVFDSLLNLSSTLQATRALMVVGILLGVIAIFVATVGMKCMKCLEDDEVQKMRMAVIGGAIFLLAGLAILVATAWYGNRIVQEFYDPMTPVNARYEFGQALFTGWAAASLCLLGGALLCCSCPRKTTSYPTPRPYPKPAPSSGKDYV
Text: The CSC cells contribute to the generation of metastasis (16-19), and key CSC characteristics are highly relevant to metastasis, including invasive motility, and, resistance to apoptosis (20,21). […] Considering that chemoresistance is central to the CRC progression and metastasis, we further tested if adjuvant use of 16 with 5FU can have significant bearing upon these traits. Colon cancer cells were subjected to exogenous administration of 16 alone, or in combination with the 5-FU, the conventional anti-CRC drug. […] To further determine the mechanistic details the effect of 16 on association of claudin-1 and Src, SW480claudin-1 cells were treated with 16 or the vehicle and resultant cell lysate was subjected to Proximity ligation assay (PLA) or Co—IP.

[4] = test system: p-Src and c-PARP in SW480claudin-1 overexpressing cells; test: Expression of p-Src, Src and c-PARP; type: cell-based
Text: (§3) To this end, a library of molecules was synthesized in order to develop an initial SAR evaluation. The first compounds tested eliminated the acylated (thio) urea as well as the napthyl group and evaluated just the urea/phenyl compounds (Compounds 1-6). The methoxy group of the naphthalene ring system was needed when the benzimidazole group was present (16 vs. Compound 8). […] The result of metabolic stability was expressed as the percentage of drug remaining at each time. […] To further determine the effect of PDS-0330 on p-Src expression and association, cells were treated with Compound 1, 16 and PDS-0330. Expression and association with p-Src was unaffected with Compound 1 (negative control). The specificity of PDS-0330 for CLDN1 was further confirmed by treating SW480^CLDN1, HCT116^CLDN2 (overexpressing another tight junction protein) or normal IEC-6 cells with PDS-0330 (FIG. 12).
(§4) Furthermore, DLD-1 chemoresistant cells were treated with PDS-0330 and I-6. […] Based on the in vitro activity and metabolic stability, PDS-0330, and any potential new analogs will be evaluated in animal models to determine the pharmacokinetic properties and biodistribution as described in preliminary data.

[5] = test system: SW480claudin-1 cells xenograft tumors; test: SW480claudin-1 xenograft tumor growth; type: in vivo
Protocol: as §1, with “Tumors were induced for two weeks after which 16 was injected i.p (10 mg/kg).” left out
Tumor volume and weight were measured.
In vivo validation of the anti-tumorigenic and metastatic effects of 1-6 treatment: (i) Xenograft model. […] These studies are elaborated using claudin-1 positive (HT29, DLD-1, SW620 cells) and negative (HCT116, SW620ShRNA) for similar xenograft tumor growth studies (15,50). Luciferin expressing cells (established in our lab) are used to help examining longitudinal growth of these tumors using live mouse imaging.

[6] = test system: DLD-1 chemoresistant cells; test: p-Src and c-PARP expression in 5FU resistant cells; type: cell-based
Protocol: as §4

SW480claudin-1 cells [7] = test: Resistance to anoikis in claudin-1 overexpressing cells; type: cell-based; conditions: for effect on resistance to anoikis: 72 h treatment; for activity: FIG. 9, printed only as 'activity', kind of value not named
Text: as §2, §3

[8] = Blood urea nitrogen (BUN) toxicity measurement; design: species or system mice; conditions: mouse, in vivo
Text: Data are expressed as means±SEM (n=5 mice/group).

SW480CLDN1 cells = test: Cell viability, specificity for CLDN1; type: cell-based
Protocol: (§5) SW480^claudin-1, IEC-6 (normal cells), and HCT116^CLDN2 cells were treated with different concentrations of PDS-0330 and cell viability was determined.
as §3

HCT116CLDN2 cells = test: Cell viability, specificity for CLDN1; type: cell-based; conditions: cells overexpressing another tight junction protein
Protocol: as §5, §3

IEC-6 (normal cells) = test: Cell viability, specificity for CLDN1; type: cell-based
Protocol: as §5, §3

| SMILES | effect on cell survival, compared among I1, I2 and 16 [1] | effect on cell invasion (SW480claudin-1 cells [2]) | claudin-1/Src (p-Src) association [3] | apoptosis (c-PARP) [4] | p-Src expression [4] | growth of xenograft tumors ([5]; 16 i.p. 10 mg/kg) | toxic effects on xenograft mice ([5]; 16 i.p. 10 mg/kg) | apoptosis (c-PARP) [6] | p-Src expression [6] | effect on resistance to anoikis (SW480claudin-1 cells [7]) | activity (SW480claudin-1 cells [7]) | cytotoxic effect by blood urea nitrogen (BUN) [8] | xenograft tumor growth ([5]; PDS-0330 ip, 2.5, 5 mg/kg) | percentage of dead cells (SW480CLDN1 cells) | effect on cell viability (HCT116CLDN2 cells) | effect on cell viability (IEC-6 (normal cells)) | activity improvement of PDS-0330 over 16 (SW480claudin-1 cells [7]; 8.4 μM vs. 28.4 μM) |
| --- | --- | --- | --- | --- | --- | --- | --- | --- | --- | --- | --- | --- | --- | --- | --- | --- | --- |
| COc1cc2ccccc2cc1C(=O)NC(=S)Nc1ccc(-c2nc3ccccc3[nH]2)cc1 [Compound 16] | most effective | most effective | markedly suppressed; also recorded: reduced | increased apoptosis (c-PARP) | reduced p-Src expression | significantly inhibited | did not observe any toxic effects | increase in apoptosis (c-PARP) | decrease in p-Src expression | most effective | 28.4 µM |  |  |  |  |  |  |
| O=C(NC(=S)Nc1ccc(-c2nc3ccccc3o2)cc1)c1ccc2ccccc2c1 [PDS-0330] |  | significantly inhibited | most potent effects; also recorded: inhibits Src association | most potent effects | most potent effects |  |  | increase in apoptosis (c-PARP) | decrease in p-Src expression | most potent compound; also recorded: significantly inhibited | 8.4 µM | no cytotoxic effect in mice | decrease in xenograft tumor growth | significant increase in the percentage of dead cells | not affected | not affected | ~3 fold |
